Assay results taken from PMC10667816, “A Cell‐Penetrant Peptide Disrupting the Transcription Factor CP2c Complexes Induces Cancer‐Specific Synthetic Lethality” (Advanced Science, 2023).
Where no end group is shown, it is not given here.

What was measured:
[1] = test system: Hep3B; assay: Hep3B CDX mouse model; type: in vivo
Experimental: Animal experiments were conducted in accordance with ethical guidelines, and all protocols were approved by the Institutional Animal Care and Use Committee under Hanyang University (approval numbers, 2014‐0016A, 2018‐0049A, 2018‐0207A, and 2019‐0169A), Chung‐Ang University (approval number, 2015‐00022), Chungbuk University (approval number, CBNUA‐1072‐17‐02), and Konkuk University (approval number, KU17130). To establish xenograft mice models, Hep3B, A431, U343, and PC9 cells were subcutaneously injected into the flank of Balb/c nude mice. For the MDA‐MB‐231 (LM1) cell line, it was implanted into the mammary fat pad of immunodeficient mice (NPG mice). Once tumors were successfully established, the animals were randomly divided into a control (vehicle) group and an experimental (drug) group. When the tumor volume reached 100 cubic millimeters, either saline or an appropriate concentration of drugs was administrated into mice via tail vein every 3 or 5 days for appropriate duration. Tumor volume was calculated using the formula of length × width^2)/2. To generate an orthotopic liver cancer mice model, 75 mg kg^−1 (mpk) of DEN was intraperitoneally injected weekly for 3 weeks into C57BL/6 mice, followed by 100 mpk of DEN weekly for the subsequent 3 weeks. After 37 weeks of liver cancer induction, mice received either saline or an appropriate concentration of drugs via the tail vein every 5 days for the designated duration. The in vivo administration amount was determined based on the concentration of ACP52C confirmed at the cellular level, which was 2 µM. Assuming an average mouse weight of 30 grams and considering that ≈5.8% of body weight constitutes blood volume,^[ [49] ^] it was calculated that the blood concentration of ACP52C should be ten times the GI50 concentration in cell culture conditions. […] For ACP52C derivatives, the amount was adjusted to ensure a similar molar quantity of peptide injection, taking their molecular weights into account. For instance, in the case of ACP52CGK, ≈1.67 times the quantity was used compared to ACP52C to achieve an equivalent molar quantity. At the time of sacrifice, major organs and tumors were removed and weighed, and blood was extracted. For histological analysis, major organs and tumors of mice were immediately fixed in 10% formalin neutral buffer solution, dehydrated through a graded series of ethanol treatments, treated with xylene, paraffin embedded, and cut into 4 µm sections. Hematoxylin and eosin (H&E)‐stained tissue sections were analyzed and photographed, and the representative histological images were recorded. Liver nodules in the DEN orthotopic liver cancer model were estimated by measuring the ratio of tumor areas over entire liver tissues in the tissue section using an Image J (version 1.51) software at 40× magnification. Complete blood count (CBC) analysis was conducted using a Hematology analyzer (scil Vet ABC) from the extracted blood.

[2] = target: T1, CP2c (Mus musculus, UniProt Q9ERA0); assay: DNA‐IP assay of CP2c DNA binding; type: biochemical; settings: 0–3 µM peptide, concentration‐dependent
T1 construct: extracts from iMEL cells (day 2); endogenous in cells; host or cells: nuclear extract of HMBA-induced MEL (iMEL) cells, day 2
Experimental: DNA‐IP assay was performed essentially as described previously.^[ [14] ^] Each of the oligonucleotides was mixed and annealed in the TEN buffer. For the radio‐labeling of the DNA probe, the annealed DNA was incubated with a mixture of dATP, dGTP, dTTP, [α^32P]‐dCTP, and Klenow enzyme in reaction buffer (5 mM NaCl, 1 mM Tris HCl, 1 mM MgCl2, and 0.1 mM DTT) for 30 min at 25 °C, and stopped by incubation with EDTA (10 mM final) for 20 min at 75 °C. The radio‐labeled DNA probe was purified by applying the reaction mixture to ProbeQuant G‐50 micro columns (GE healthcare, GE28‐9034‐08). Whole extracts prepared from transfecting 293T cells or purified GST fused CP2c proteins (wildtype and point mutants) were incubated with a [α^32P]‐labeled DNA probe in binding buffer (4% glycerol, 10 mM Tris‐HCl, pH 7.4, 1 mM DTT, 1 mM EDTA, and 0.1% NP‐40) for 15 min at room temperature. Then 0–3 µM of peptides (Pep #5, Pep #8, Pep #5‐1, Pep #5‐2, and Pep #5‐2C) were added to the DNA‐protein mixture, and the mixtures were incubated for 15 min at room temperature (peptide sequences are listed in Table S3, Supporting Information). For IP, precleared extracts were incubated overnight at 4 °C with 1 µg of the following primary antibodies (CP2c, CP2b, and PIAS1). […] The radioactivity of the eluted probe was measured by scintillation counting.

[3] = test system: murine erythroleukemia (MEL) cells; assay: Erythroid differentiation of MEL cells; type: cell-based; settings: HMBA‐induced MEL cells, supplementation to the culture
Experimental: Information of the cell lines is listed in Table S1 (Supporting Information), including their origin and culture conditions. All cell lines were cultured at 37 °C, 5% CO2 incubator. MDA‐MB‐231 (LM1), HepG2, Hep3B, and HCT116 cell lines were authenticated with short tandem repeat markers based on ATCC information. All cell lines tested negative for mycoplasma contamination. Transient downregulation of the gene of interest was conducted by siRNA transfection using Lipofectamine 2000 (Thermo Fisher, 11668019) according to the manufacturer's instructions. Information about siRNAs is provided in Table S2 (Supporting Information). Stable cell lines were established by transfecting cells using Effectene reagent (Qiagen, 301425), followed by selection of cell clones in the presence of 1 µg mL^−1 puromycin (Sigma–Aldrich, P8833). The establishment of cell lines was confirmed by WB or RT‐qPCR. For doxycycline‐inducible gene expression regulation, cell lines were incubated in the presence of 1 µg mL^−1 doxycycline (Sigma–Aldrich, D9891) for 2–3 days. To promote sphere formation of the cell lines, each well of the tissue culture dish was coated with 10% poly 2‐hydroxyethyl methacrylate (polyHEMA). An appropriate number of cells per well were seeded in serum‐free DMEM/F12 (HyClone, SH30023.01) supplemented with B27, 20 ng mL^−1 bFGF, and 20 ng mL^−1 EGF. For erythroid terminal differentiation experiments, differentiation was assessed by hemoglobin staining using a 0.2% (w/v) tetramethylbenzidine solution (Sigma–Aldrich, T0440) in 0.6% hydrogen peroxide, 3% acetic acid for 10 min in dark condition. Benzidine‐positive or negative cell numbers were counted under the inverted microscope BX50 (Olympus) at 200 × magnification. […] After each synchronization, cells were fixed at 4‐h intervals for 24 h with ACP52C treatment, and the cell cycle was analyzed by Propidium Iodide (PI) staining or intracellular protein was analyzed by immunofluorescence. […] This development period was repeated four times for one round, after which GI50 concentrations were re‐assessed in each resistant cell line. […]

[4] = intravenous injection at three‐day intervals, Sorafenib orally once daily as positive control

T1 sequence (Q9ERA0 whole entry): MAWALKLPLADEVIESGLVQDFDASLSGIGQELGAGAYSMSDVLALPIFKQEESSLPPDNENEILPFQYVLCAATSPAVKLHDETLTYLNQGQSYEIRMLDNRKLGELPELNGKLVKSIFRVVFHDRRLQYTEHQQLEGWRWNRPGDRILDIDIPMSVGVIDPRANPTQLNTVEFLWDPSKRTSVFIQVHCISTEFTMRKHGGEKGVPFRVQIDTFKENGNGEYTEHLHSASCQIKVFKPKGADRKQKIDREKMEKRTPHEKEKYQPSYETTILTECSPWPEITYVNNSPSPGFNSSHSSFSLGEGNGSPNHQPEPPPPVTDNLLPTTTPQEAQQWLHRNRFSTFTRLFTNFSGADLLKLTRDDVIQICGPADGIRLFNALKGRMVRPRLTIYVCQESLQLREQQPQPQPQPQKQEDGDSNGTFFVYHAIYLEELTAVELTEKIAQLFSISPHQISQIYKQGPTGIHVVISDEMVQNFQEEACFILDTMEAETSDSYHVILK

Substance | anti‐tumor activity [1, 4] | also measured
Ac-NYPQRPGG-K(E-pal)-GGCRGDKGPDC-NH2 [ACP52GK, E‐pal attached via αE COO‐ to lysine between ACP52 and iRGD] | lower anti‐tumor activity compared to ACP52C | 
Ac-K(EGFLG-pal)K-GGNYPQRPCRGDKGPDC-NH2 [ACP52CK, ACP52C with enzyme‐cleavable linker GFLG to palmitic acid] | activity similar to that of Sorafenib | 
Ac-K(E-pal)K-GGNYPQRPCRGDKGPDC-NH2 [ACP52CG, palmitic acid linked to lysine at the N‐terminus of ACP52C] | decrease in anti‐tumor activity, resembling Sorafenib | 
HERRES [Pep #5‐1] |  | inhibition of DNA binding activity of CP2c [2]: no activity
Ac-HERRESNYPQRPCRGDKGPDC-NH2 [Pep #5C] |  | inhibition of erythroid differentiation [3]: efficiently inhibited erythroid differentiation
DHA-GGNYPQRPCRGDKGPDC-NH2 [DHA‐ACP52C, DHA, an unsaturated fatty acid, conjugated at the N‐terminus of ACP52C] | effectively demonstrated anti‐tumor activity | anti‐tumor activity ([1]; administered at five‐day intervals): noticeably higher activity than ACP52C
